Source: patent publication US5837479A, “Screening assays for inhibitors of mammalian prostaglandin H synthase-2” (priority 1995, dated 1998)
Like-named read-outs stand apart in the source and are kept apart here.

What was measured:
COS cells = assay: toxicity to COS cells; format: cell-based, monkey; conditions: 800 μg/ml Geneticin (active component 657 μg/ml)
Procedure: Sixty-mm plates of 50% confluent COS-A2 (monkey-kidney) cells, which contain little or no cyclooxygenase activity were transfected with 1-2.5 μg of purified pRC/CMV;hPGHS-2 plasmid, pRC/CMV;hPGHS-1 plasmid or the PRC/CMV vector alone by a calcium phosphate precipitation method (Chen et al., 1987, Mol. Cell. Biol., 7:2745-2752. Plates were incubated at 35° C., 3% CO2 for 24 hr in normal media (Dulbecco's modified Eagle Media (DMEM)+10% fetal bovine serum). After two rinses with warm DMEM, plates were transferred to 37° C., 5% CO2 for an additional 24 hr. Selection was then started with normal media containing 800 μg/ml of Geneticin (active component G418, 657 μg/ml, Life Technologies), a concentration which is toxic for COS cells. […] Twelve to twenty-four colonies from each transfection were isolated using cloning cylinders. The majority of these survived continued G418 selection during clonal cell-line expansion.

[1] = tested on: familial polyposis (colon polyps); conditions: patients with familial polyposis; cited from earlier work
[2] = tested on: human PGHS-2 (versus human PGHS-1); assay: NSAID inhibition of human PGHS-2 activity in stably transformed COS cells (4B4), compared with human PGHS-1 cells (H17A5); format: cell-based; conditions: 30 min preincubation, 15 min arachidonic acid; FIGS. 8A-8D and 9A-9D
Procedure: PGHS-1 and PGHS-2 cell lines (including 4B4 and H17A5) were exposed to various concentrations of NSAID for 30 min in serum-free DMEM. […] Controls consisted of no drug treatment and cells treated with the maximal concentrations of drug vehicles (1% methanol or ethanol). […] Cyclooxygenase activity was determined as described herein above.

colorectal carcinoma = conditions: several clinical trials; cited from earlier work
[3] = tested on: 2.8-kb mRNA encoding PGHS-1; assay: level of 2.8-kb PGHS-1 mRNA in C127 mouse fibroblasts; format: cell-based; conditions: C127 cells
4-kb mRNA (PGHS-2) = assay: level of 4-kb PGHS-2 mRNA in C127 mouse fibroblasts; format: cell-based; conditions: C127 cells
Excerpt: Three of four potential N-glycosylation sites are conserved between the two molecules and there is particularly high similarity in the regions surrounding a putative axial heme-binding domain (amino acids 273-342) and the region around the presumed aspirin modified-serine^516 (amino acids 504-550). By far the largest difference in the two cDNAs is the presence of a 2.1 kb 3' untranslated region in the 4.1 kb cDNA. This region is rich in 5'-AUUUA-3' motifs that are associated with the decreased stability of many cytokine and protooncogene mRNAs. The presence of these motifs is consistent with the profound superinducibility of the 4.1 kb mRNA by cycloheximide, which is not observed for the 2.8 kb mRNA.

[4] = tested on: 2.8-kb PGHS mRNA (PGHS-1), human monocytes; format: cell-based
Procedure: (§1) FIGS. 3A-3B are a photographic depiction of autoradiographies obtained by Northern blotting monitoring the expression of the genes encoding griPGHS and the constitutive PGHS-1, as expressed in human monocytes, in response to interleukin-1 treatment, a known mediator of inflammation. Adherent human monocytes isolated from healthy donors were suspended in medium without serum at 1×10^6 cells/ml. One ml aliquots in 5 ml polypropylene tubes were incubated with loosened caps in 5% CO2 at 37° C. with occasional shaking. FIGS. 3A-3B are more fully described as follows:
(§2) Five μg was subjected to Northern blot analysis with the indicated probes.
(§3) Cycloheximide (25 μM) was added to one set of incubations 15 min prior to he addition of cytokine or hormone.
(§4) Poly-A enriched RNAs (2.5 μg) from C127 cells were fractionated by formaldehyde-agarose gel electrophoresis and transferred to a membrane (Duralon, Stratagene). Hybridization was carried out as previously described by O'Banion et al., 1991, J. Virol., 65:3481-3488, using the 5' 1.2 kb EcoR1 fragment of the 4.1 kb cDNA labeled with ^32 P by random priming as disclosed by Feinberg et al., 1983, Anal. Biochem., 132:6-13. The membrane was later rehybridized with a similarly labeled portion (1.6 kb 5' end) of the 2.8 kb ovine PGHS cDNA (Oxford Biomedical Research, Inc.), and an end-labeled 40-mer complimentary to β-tubulin (Oncor). RNA molecular weight markers (Life Technologies) were visualized by ethidium bromide staining. A similar analysis was performed on total RNA (5 µg/lane) isolated from human monocytes by the guanidinium-acid-phenolextraction method of Chomczynski et al., 1987, Anal. Biochem., 162:156-159.
(§5) Adherent human monocytes isolated from healthy donors as described by Roberts et al., 1978, J. Immunol, 121:1052-1058, were suspended in M199 medium without serum at 1×10^6 cells/ml. One ml aliquots in 5 ml polypropylene tubes were incubated with loosened caps in 5% CO2 at 37° C. with occasional shaking. […] Five μg RNA was subjected to Northern blot analysis as described by O'Banion et al., 1991, J. Biol. Chem., 34:23261-23267 with the indicated probes labeled by random priming (kit from Boehringer-Mannheim) to a specific activity >1×10^9 cpm/μg. […] Cycloheximide (25 μM; Sigma) was added to one set of incubations 15 min prior to the addition of cytokine or hormone.

[5] = tested on: griPGHS mRNA (4.8-kb mRNA), human monocytes; format: cell-based; conditions: for griPGHS mRNA increase relative to control: IL-1β 10 half-maximal units
Procedure: as §1, §2, §3, §4, §5

[6] = tested on: C127 mouse fibroblasts (protein synthesis); assay: inhibition of protein synthesis in C127 mouse fibroblasts; format: cell-based; conditions: C127, 0.25 h, within 15 min
Excerpt: C127 mouse fibroblasts were obtained from Peter Howley (NIH) and propagated in high glucose Dulbecco's modified Eagle's medium supplemented with 10% fetal bovine serum (HyClone Laboratories) without antibiotics. See, Lowy et al., 1978, J. Virol., 26:291-298. Cultures were monitored for mycoplasma contamination by Hoechst 33258 staining in accord with the procedure of Chen, 1977, Exp. Cell Res., 104:255-262.
Exponentially growing, subconfluent (60-80%) cell monolayers (35-mm plates) were labeled in Dulbecco's modified Eagle's medium without methionine (Life Technologies) plus 200 μCi/ml Tran^35 S-label (>1,000 Ci/mmol; ICN) for 15 or 30 min. In some cases, fresh fetal calf serum (10%) was present during the labeling period. Monolayers were rinsed twice with ice-cold Dulbecco's modified Eagle's medium (DMEM) with methionine prior to lysis in 200 μl of A8 buffer (9.5M urea, 2% (w/v) Nonidet P-40, 2% (w/v) ampholines (LKB, 1.6% pH range 5-8, 04. % pH range 3.5-10), 5% (w/v) 2-mercaptoethanol). Incorporation of label into proteins was determined by trichloroacetic acid precipitation. […] The calcium ionophore A23187 (Calbiochem) was used at a concentration of 5 μM from a 2.5 mM stock in ethanol. Cycloheximide (Sigma) was used at a concentration of 25 μM from a 100 X stock in water. This level inhibited protein synthesis by >97% within 15 min. […]

[7] = tested on: cystic fibrosis lung disease; conditions: high-dose, cystic fibrosis patients; cited from earlier work
preterm labor = conditions: in vivo; cited from earlier work
[8] = tested on: PGHS-2 expression, astrocytes; conditions: cultured murine and rat astrocytes; cited from earlier work
[9] = tested on: 72-74 kDa protein doublet, BALB/c 3T3 fibroblasts; conditions: cited from earlier work

CN[C@@H]1[C@@H](O)[C@@H](O[C@@H]2[C@@H](O)[C@H](O[C@H]3O[C@H]([C@@H](C)O)[C@@H](O)[C@H](O)[C@H]3N)[C@@H](N)C[C@H]2N)OC[C@]1(C)O [G418]
toxicity for COS cells (COS cells): toxic

CC1=C(CC(=O)O)c2cc(F)ccc2/C1=C\c1ccc([S+](C)[O-])cc1 (stereo not shown) [Sulindac]
colon polyp regression [1]: colon polyp regression

CC(=O)Oc1ccccc1C(=O)O [aspirin]
levels of drug required for inhibition, PGHS-1 versus PGHS-2 cells [2]: different for the cells expressing PGHS-1 versus those expressing PGHS-2
colon tumor growth and death (colorectal carcinoma): decreased colon tumor growth and death

C[C@@H]1C[C@@H]([C@H](O)CC2CC(=O)NC(=O)C2)C(=O)[C@@H](C)C1 [cycloheximide]
change in 2.8-kb PGHS-1 mRNA level [3]: no change
accumulation of 4-kb mRNA (4-kb mRNA (PGHS-2)): accumulates to significant levels
levels of 2.8-kb mRNA relative to β-tubulin ([4]; IL-1β, dexamethasone or cycloheximide treatment): not significantly altered
superinduction of 4.8-kb mRNA ([5]; cycloheximide 25 μM, added 15 min before cytokine or hormone): superinduction of the 4.8-kb mRNA was clearly evident
inhibition at 25 µM [6]: > 97%

C[C@@H]1C[C@H]2[C@@H]3CCC4=CC(=O)C=C[C@]4(C)[C@@]3(F)[C@@H](O)C[C@]2(C)[C@@]1(O)C(=O)CO [dexamethasone]
change in 2.8-kb PGHS-1 mRNA level [3]: no change
level of 2.8-kb PGHS mRNA ([4]; 4 hr, normalized to β-tubulin): not affected

CC(C)Cc1ccc(C(C)C(=O)O)cc1 (stereo not shown) [ibuprofen]
progression of lung disease [7]: slows the progression of lung disease

COc1ccc2c(c1)c(CC(=O)O)c(C)n2C(=O)c1ccc(Cl)cc1 [indomethacin]
levels of drug required for inhibition, PGHS-1 versus PGHS-2 cells [2]: different for the cells expressing PGHS-1 versus those expressing PGHS-2
premature closure of the ductus arteriosus of the fetus (preterm labor): raises concern with premature closure of the ductus arteriosus

IL-1β: IL-1β (10 half-maximal units, Collaborative Research), a known mediator of inflammation
levels of 2.8-kb mRNA relative to β-tubulin [4]: not significantly altered
griPGHS mRNA increase relative to control ([5]; 4 hr): 2.5 fold
griPGHS mRNA increase relative to control ([5]; 12 hr): 14 fold
regulation of PGHS-2 expression in astrocytes [8]: strongly up-regulated
time of peak PGHS-2 mRNA level [8]: 2 h

TNFα
regulation of PGHS-2 expression in astrocytes [8]: strongly up-regulated
time of peak PGHS-2 mRNA level [8]: 2 h

platelet-derived growth factor
synthesis of 72-74 kDa protein doublet [9]: transiently increased
